Assay: solvent given as SMILES

Q: For O=S(=O)(c1ccc(N(c2ccccc2)c2ccccc2)cc1)c1ccc(N(c2ccccc2)c2ccccc2)cc1, which fluorescence lifetime (in Cc1ccccc1) is on record?
A: 2.2 ns

Q: And the fluorescence lifetime (in O=P(c1ccccc1)(c1ccccc1)c1ccccc1Oc1ccccc1P(=O)(c1ccccc1)c1ccccc1)?
A: 3.5 ns

Q: With O=C1O[B-]2(OC1=O)OC(c1ccccc1)=CC(c1ccc3ccccc3c1)=[O+]2 as the compound, how does the fluorescence lifetime (in CC#N) read?
A: 5.4 ns

Q: And the fluorescence lifetime (in ClC(Cl)(Cl)Cl)?
A: 1.6 ns

Q: Which fluorescence lifetime (in ClCCl) does the source give for CC(C)(C)c1ccc(-c2nc3c4ccc(-c5c6ccccc6cc6ccccc56)cc4c4cc(-c5c6ccccc6cc6ccccc56)ccc4c3n2-c2ccc(C(C)(C)C)cc2)cc1 here?
A: 6.1 ns

Q: For CCCCCCN1C(=O)C(c2ccc(-n3c4ccccc4c4ccccc43)cc2)=C(c2ccc(-n3c4ccccc4c4ccccc43)cc2)C1=O, which fluorescence lifetime (in ClC(Cl)Cl) is on record?
A: 5.4 ns

Q: And the fluorescence lifetime (in c1ccc2c(c1)c1ccccc1n2-c1ccc(-c2ccc(-n3c4ccccc4c4ccccc43)cc2)cc1)?
A: 4 ns

Q: With CCCCCCCCOc1ccc(C2=C3C(C)=C(C#Cc4ccc(B(c5c(C)cc(C)cc5C)c5c(C)cc(C)cc5C)cc4)C(C)=[N+]3[B-](F)(F)n3c(C)c(C#Cc4ccc(B(c5c(C)cc(C)cc5C)c5c(C)cc(C)cc5C)cc4)c(C)c32)cc1 as the compound, how does the fluorescence lifetime (in CC#N) read?
A: 4.37 ns

Q: And the fluorescence lifetime (in CCCCCC)?
A: 5.4 ns

Q: What about the fluorescence lifetime (in ClCCl) of the same compound?
A: 4.39 ns

Q: Which results are given for CN(C)c1ccc2c(c1)-c1ccccc1C2=O?
A: fluorescence lifetime (in C1CCCCC1): 6.1 ns; fluorescence lifetime (in CC#N): 4.8 ns; fluorescence lifetime (in c1ccccc1): 11 ns

Q: Which fluorescence lifetime (in C1CCCCC1) does the source give for CC(=O)c1ccc(-c2nc3ccc(N(C)C)cc3s2)cc1 here?
A: 2.2 ns

Q: For CCCCCc1c(C(=O)c2ccc3c4c(cccc24)-c2cccc4c2C3CC=C4)c2ccc3cccc4c5cccc6ccc1c(c65)c2c34 (configuration not stated), which fluorescence lifetime (in ClCCl) is on record?
A: 1.09 ns

Q: What does the source list for N#Cc1cccc2cc[nH]c12?
A: fluorescence lifetime (in C1CCOC1): 6.9 ns; fluorescence lifetime (in C1COCCO1): 7.5 ns; fluorescence lifetime (in CC#N): 8 ns; fluorescence lifetime (in CC(C)O): 9 ns; fluorescence lifetime (in CCO): 8.7 ns; fluorescence lifetime (in CO): 8.2 ns; fluorescence lifetime (in CS(C)=O): 14.5 ns; fluorescence lifetime (in NC=O): 15.7 ns; fluorescence lifetime (in O): 2 ns; fluorescence lifetime (in OCC(F)(F)F): 1.2 ns; fluorescence lifetime (in [2H]O[2H]): 2.3 ns

Q: For Cc1cccc2[n+]1[B-](F)(F)n1c(c3cccc4cccc1c43)=N2, which fluorescence lifetime (in ClCCl) is on record?
A: 7.1 ns

Q: For c1cc2c3c(c1)OCCCCCCOc1cccc(c1-c1c4ccccc4c-3c3ccccc13)OCCCCCCO2, which fluorescence lifetime (in C1CCCCC1) is on record?
A: 8.64 ns

Q: With COc1ccc(/C=C/c2nc3c4ccccc4c4ccccc4c3o2)cc1 as the compound, how does the fluorescence lifetime (in CC#N) read?
A: 0.97 ns

Q: Which fluorescence lifetime (in ClC(Cl)Cl) does the source give for c1csc(-c2ccc(-c3cccs3)c3nsnc23)c1 here?
A: 10.2 ns

Q: With CCc1c(C)[nH]c(C2=[N+]3C(=Cc4c(C)c(CC)c(C)n4[B-]3(F)F)c3ccccc32)c1C as the compound, how does the fluorescence lifetime (in ClCCl) read?
A: 6.3 ns

Q: With CC1(C)c2cccc(-c3nc(-c4ccccc4)nc(-c4ccccc4)n3)c2Oc2c(N3c4ccccc4Sc4ccccc43)cccc21 as the compound, how does the fluorescence lifetime (in Cc1ccccc1) read?
A: 2.8 ns

Q: Which fluorescence lifetime (in C1CCOC1) does the source give for CN(C)c1ccc(C2=Nc3scc(-c4ccccc4)[n+]3[B-](F)(F)O2)cc1 here?
A: 2.06 ns

Q: What does the source list for CN(C)c1ccc(C(=O)c2ccccc2)cc1?
A: fluorescence lifetime (in C1CCCCC1): 0.1 ns; fluorescence lifetime (in CC#N): 0.16 ns; fluorescence lifetime (in CO): 0.0052 ns; fluorescence lifetime (in CS(C)=O): 0.1 ns; fluorescence lifetime (in c1ccccc1): 0.9 ns

Q: For CC1=CC(/C=C/c2ccc([N+](C)(C)C)cc2)=[N+]2C1=C(c1ccc(C#CCO[C@@H]3O[C@H](CO)[C@@H](O)C(O)[C@H]3O)cc1)c1c(C)cc(/C=C/c3ccc([N+](C)(C)C)cc3)n1[B-]2(F)F (some centres not stated), which fluorescence lifetime (in CC#N) is on record?
A: 5.3 ns

Q: For Cc1c(C)c(B(c2c(C)c(C)c(N3c4ccccc4Oc4ccccc43)c(C)c2C)c2c(C)c(C)c(N3c4ccccc4Oc4ccccc43)c(C)c2C)c(C)c(C)c1C#N, which fluorescence lifetime (in c1ccc([Si](c2ccccc2)(c2ccc(-n3c4ccccc4c4ccccc43)cc2)c2ccc(-n3c4ccccc4c4ccccc43)cc2)cc1) is on record?
A: 18 ns

Q: Which fluorescence lifetime (in CC#N) does the source give for COc1ccc2cc(/C=C/c3ccccc3)c(=O)oc2c1 here?
A: 2.75 ns

Q: Which results are given for CCC(CC)COC1=CC2=C3c4cc(OCC(CC)CC)c(-c5cccs5)n4[B-](F)(F)[n+]4c3n(c3cc(C(C)(C)C)ccc34)[B-](F)(F)[N+]2=C1c1cccs1?
A: fluorescence lifetime (in C1CCOC1): 0.5 ns; fluorescence lifetime (in ClCCl): 0.7 ns

Q: Which fluorescence lifetime (in CC#N) does the source give for C[n+]1ccc(-c2cc[n+](C)cc2)cc1 here?
A: 0.9 ns

Q: Which fluorescence lifetime (in ClC(Cl)Cl) does the source give for CCCCCCN1C(=O)c2cccc3cc(/N=C\c4ccc(N5CCOCC5)cc4)cc(c23)C1=O here?
A: 3.84 ns

Q: For COc1cc2c(cc1-c1ccsc1)Cc1c3c(c4c(c1-2)-c1cc(OC)c(-c2ccsc2)cc1C4)C(=O)N(CCC(C)C)C3=O, which fluorescence lifetime (in C1CCOC1) is on record?
A: 3.42 ns

Q: With CCN1C(=CC2=C([O-])C(=Cc3sc4ccccc4[n+]3CC)C2=O)Sc2ccccc21 as the compound, how does the fluorescence lifetime (in CO) read?
A: 0.56 ns

Q: What about the fluorescence lifetime (in ClC(Cl)Cl) of the same compound?
A: 4.05 ns

Q: For COc1ccc(C2=Cc3ccc4ccccc4[n+]3[B-](F)(F)O2)cc1, which fluorescence lifetime (in ClC(Cl)Cl) is on record?
A: 2.3 ns

Q: For Cc1nc2c(ccc3ccc(O)cc32)oc1=O, which fluorescence lifetime (in c1ccccc1) is on record?
A: 3.9 ns

Q: For N#Cc1ccc2c(c1)CCc1nc(-c3ccc([N+](=O)[O-])cc3)c3c(c1-2)CCc1cc(C#N)ccc1-3, which fluorescence lifetime (in C1CCOC1) is on record?
A: 1.36 ns

Q: What about the fluorescence lifetime (in CC#N) of the same compound?
A: 1.11 ns

Q: And the fluorescence lifetime (in CCCCCC)?
A: 0.64 ns

Q: And the fluorescence lifetime (in CCOC(C)=O)?
A: 1.11 ns

Q: And the fluorescence lifetime (in CO)?
A: 0.84 ns

Q: What about the fluorescence lifetime (in CS(C)=O) of the same compound?
A: 1.24 ns

Q: What about the fluorescence lifetime (in Cc1ccccc1) of the same compound?
A: 0.88 ns

Q: What about the fluorescence lifetime (in ClCCl) of the same compound?
A: 1.46 ns

Q: Which fluorescence lifetime (in CC#N) does the source give for COc1cc2cc(/C=C/c3ccc(/C=C/c4ccc(/C=C(\C#N)C(=O)O)cc4)cc3)c(=O)oc2cc1OC here?
A: 2.3 ns

Q: What does the source list for CCCCc1cc(CCCC)c2ccc3c(CCCC)cc(CCCC)c4ccc1c2c43?
A: fluorescence lifetime (in CCCCCC): 65.8 ns; fluorescence lifetime (in CO): 75 ns; fluorescence lifetime (in ClCCl): 56.7 ns

Q: Which results are given for CCN1/C(=C\c2c(-c3ccc(N(C)C)cc3)c(=O)c2=O)C=Cc2ccccc21?
A: fluorescence lifetime (in C1CCCCC1): 1 ns; fluorescence lifetime (in Cc1ccccc1): 1.85 ns; fluorescence lifetime (in ClCCl): 0.1 ns

Q: For CN(C)c1ccc2nc(-c3ccccc3)sc2c1, which fluorescence lifetime (in C1CCCCC1) is on record?
A: 2.1 ns

Q: For C(=C\c1cc(-c2ccc3ccccc3c2)c(/C=C/c2ccc(N(c3ccccc3)c3ccccc3)cc2)cc1-c1ccc2ccccc2c1)/c1ccc(N(c2ccccc2)c2ccccc2)cc1, which fluorescence lifetime (in ClCCl) is on record?
A: 1.17 ns
